# Experimental data: BindingDB's records for patent US11926614 (Oslo Universitetssykehus, 2024)
# Target: T1, Poly [ADP-ribose] polymerase tankyrase-2 (Homo sapiens, UniProt Q9H2K2)
# T1 sequence (Q9H2K2 whole entry): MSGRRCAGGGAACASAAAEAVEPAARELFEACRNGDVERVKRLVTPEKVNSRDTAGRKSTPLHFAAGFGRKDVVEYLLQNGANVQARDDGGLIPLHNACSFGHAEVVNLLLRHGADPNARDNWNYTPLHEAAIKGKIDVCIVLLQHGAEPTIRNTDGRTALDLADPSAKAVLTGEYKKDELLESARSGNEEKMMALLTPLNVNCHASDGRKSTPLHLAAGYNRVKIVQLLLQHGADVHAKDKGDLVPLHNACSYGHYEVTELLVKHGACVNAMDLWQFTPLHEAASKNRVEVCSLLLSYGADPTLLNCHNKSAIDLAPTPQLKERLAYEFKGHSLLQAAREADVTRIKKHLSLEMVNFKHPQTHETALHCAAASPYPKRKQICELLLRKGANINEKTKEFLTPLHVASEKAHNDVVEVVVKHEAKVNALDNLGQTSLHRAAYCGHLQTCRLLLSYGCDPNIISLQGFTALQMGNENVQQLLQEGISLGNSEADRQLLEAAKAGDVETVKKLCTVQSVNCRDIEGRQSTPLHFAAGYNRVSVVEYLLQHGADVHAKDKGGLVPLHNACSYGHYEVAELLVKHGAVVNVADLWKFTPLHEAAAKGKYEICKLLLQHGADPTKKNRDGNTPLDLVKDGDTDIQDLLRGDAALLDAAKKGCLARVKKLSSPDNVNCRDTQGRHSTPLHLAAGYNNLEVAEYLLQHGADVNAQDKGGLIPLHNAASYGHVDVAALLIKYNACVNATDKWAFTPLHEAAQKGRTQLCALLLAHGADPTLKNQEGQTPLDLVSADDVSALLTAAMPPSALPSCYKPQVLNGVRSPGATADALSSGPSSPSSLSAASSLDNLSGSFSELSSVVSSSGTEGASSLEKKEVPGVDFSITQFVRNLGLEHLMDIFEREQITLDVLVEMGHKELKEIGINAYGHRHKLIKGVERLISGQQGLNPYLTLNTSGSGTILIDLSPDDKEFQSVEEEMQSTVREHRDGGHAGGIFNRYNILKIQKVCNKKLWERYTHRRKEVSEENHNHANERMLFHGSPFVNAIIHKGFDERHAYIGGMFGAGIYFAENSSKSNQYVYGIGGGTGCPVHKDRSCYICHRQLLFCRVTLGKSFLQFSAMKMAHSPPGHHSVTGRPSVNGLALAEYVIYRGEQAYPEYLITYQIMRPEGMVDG
# Assay: Biochemical Assay
# Excerpt: IC50 calculations:XLfit (idbs) was used to determine the IC50-values in inhibition experiments. The following formula was chosen to fit the data points (Langmuir Binding Isotherm):fit=((A+(B*x))+[…]*(1−exp((−1*D)*x)))/D)), res=(y−fit)
smiles,measurement,value
"O=C(N[C@H]1C[C@H](c2nnc(-c3nccs3)n2-c2ccccc2F)C1)c1ccnc2cc(F)cnc12 [US11926614, Example 29]",IC50,2 nM
